In patent publication US20230089073A1 (Carmot Therapeutics, Inc., priority 2021, published 2023):

Experiments:
human GLP-1 receptor = biological target: T1, human GLP-1 receptor (Homo sapiens, UniProt P43220); experiment: GLP-1R cAMP Assay; type: cell-based; details: cAMP accumulation in CHO cells stably overexpressing the human GLP-1 receptor; 30 min treatment; HitHunter cAMP kit; read-out: EC50
T1 construct: expressed in transfected cells
Summary of the method: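 Luminescent enzyme-complementation detection of cAMP, read after cell lysis and overnight incubation, with dose-response curve fitting. Stimulation lasted 30 min, using 20-point triplicate dosing on CHO cells (10,000 per well) stably overexpressing human GLP-1R.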

cynomolgus monkeys = experiment: Intravenous Glucose Tolerance Test (IVGTT) in Cynomolgus Monkeys; type: in vivo, cynomolgus monkeys (Macaca fascicularis); details: test article intravenous bolus 1-6 minutes prior to IV glucose 0.5 g/kg, plasma insulin 0-60 minutes, FIG. 1
Experimental: Intravenous Glucose Tolerance Test (IVGTT) in Cynomolgus Monkeys
Aged ([…]) cynomolgus monkeys (Macaca fascicularis; N=4-5/test article) were fasted overnight and anesthetized with ketamine prior to the intravenous glucose tolerance test (IVGTT). The test articles were formulated at 6 mg/mL in vehicle (5% polyethylene glycol 400: 95% (12% (w/v) sulfobutylether-β-cyclodextrin in deionized water) (v/v)]) and administered by intravenous bolus into a peripheral vein 1-6 minutes prior to the IVGTT. The IVGTT was initiated by administration of an IV bolus of glucose (0.5 g/kg as a 50% glucose solution). Blood samples were collected from a peripheral vein 0, 1, 3, 5, 10, 20, 40 and 60 minutes upon completion of the IV bolus glucose injection. The blood samples were collected directly into potassium ethylene diamine tetra-acetic acid tubes and plasma separated by centrifugation at 2,500 g for 10 minutes within 30 minutes of collection. The plasma from all time points was analyzed for insulin concentrations ([…]) using a Cobas e411 Immunology analyzer. Insulin area-under-the-curve (AUC) was calculated using GraphPad Prism software (v 9).

T1 sequence (P43220 24-463): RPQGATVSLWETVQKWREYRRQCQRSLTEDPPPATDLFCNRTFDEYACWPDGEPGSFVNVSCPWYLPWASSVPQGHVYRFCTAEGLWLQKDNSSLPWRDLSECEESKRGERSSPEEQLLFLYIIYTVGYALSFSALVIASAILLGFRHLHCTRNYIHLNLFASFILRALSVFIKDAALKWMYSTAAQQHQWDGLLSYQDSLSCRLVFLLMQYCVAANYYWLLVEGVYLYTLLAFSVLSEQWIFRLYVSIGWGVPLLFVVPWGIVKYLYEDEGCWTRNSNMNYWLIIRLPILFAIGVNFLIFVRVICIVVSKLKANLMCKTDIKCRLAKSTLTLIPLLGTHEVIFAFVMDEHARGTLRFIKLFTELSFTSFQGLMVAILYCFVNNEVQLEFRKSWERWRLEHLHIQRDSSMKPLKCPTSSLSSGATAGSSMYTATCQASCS

C[C@H]1C[C@@H](Oc2ccnc(COc3ccc(F)cc3C#N)n2)CCN1Cc1nc2ccc(C(=O)O)cc2n1C[C@@H]1CCO1 [Example 355, 2-(((2S,4S)-4-((2-((2-cyano-4-fluorophenoxy)methyl)pyrimidin-4-yl)oxy)-2-methylpiperidin-1-yl)methyl)-1-(((S)-oxetan-2-yl)methyl)-1H-benzo[d]imidazole-6-carboxylic acid]
EC50 (human GLP-1 receptor): < 50 nM | insulin AUC (insulin secretion) (cynomolgus monkeys): substantial increase

CCn1cncc1Cn1c(CN2CCC(Oc3ccnc(COc4ccc(Cl)cc4Cl)c3)CC2)nc2ccc(C(=O)O)cc21 [Example 145, 2-((4-((2-((2,4-Dichlorophenoxy)methyl)pyridin-4-yl)oxy)piperidin-1-yl)methyl)-1-((1-ethyl-1H-imidazol-5-yl)methyl)-1H-benzo[d]imidazole-6-carboxylic acid]
EC50 (human GLP-1 receptor): < 50 nM | insulin AUC (insulin secretion) (cynomolgus monkeys): substantial increase

C[C@H]1C[C@@H](Oc2ccnc(COc3ccc(C#N)cc3F)n2)CCN1Cc1nc2ccc(C(=O)O)cc2n1C[C@@H]1CCO1 [Example 313, 2-(((2S,4S)-4-((2-((4-Cyano-2-fluorophenoxy)methyl)pyrimidin-4-yl)oxy)-2-methylpiperidin-1-yl)methyl)-1-(((S)-oxetan-2-yl)methyl)-1H-benzo[d]imidazole-6-carboxylic acid]
EC50 (human GLP-1 receptor): < 50 nM | insulin AUC (insulin secretion) (cynomolgus monkeys): substantial increase

CCn1cncc1Cn1c(CN2CCC(Oc3ccnc(COc4ccc(Cl)cc4C#N)c3)CC2)nc2ccc(C(=O)O)cc21 [Compound 171, 2-{[4-({2-[(4-chloro-2-cyanophenoxy)methyl]pyridin-4-yl}oxy)piperidin-1-yl]methyl}-1-[(1-ethyl-1H-imidazol-5-yl)methyl]-1H-1,3-benzodiazole-6-carboxylic acid]
EC50 (human GLP-1 receptor): < 50 nM | insulin AUC (insulin secretion) (cynomolgus monkeys): substantial increase

O=C(O)c1ccc2nc(CN3CCC(Oc4ccnc(COc5ccc(C(F)(F)F)cc5F)n4)CC3)n(C[C@@H]3CCO3)c2c1 [Compound 338]
EC50 (human GLP-1 receptor): < 50 nM | insulin AUC (insulin secretion) (cynomolgus monkeys): substantial increase

O=C(O)c1cc(F)c2nc(CN3CCC(Oc4ccnc(COc5ccc(Cl)cc5F)c4)CC3)n(C[C@@H]3CCO3)c2c1 [Compound 335]
EC50 (human GLP-1 receptor): < 50 nM | insulin AUC (insulin secretion) (cynomolgus monkeys): substantial increase

O=C(O)c1ccc2nc(CN3CCC(Oc4ccnc(COc5ccc(F)cc5Cl)n4)CC3)n(C[C@@H]3CCO3)c2c1 [Compound 326]
EC50 (human GLP-1 receptor): < 50 nM | insulin AUC (insulin secretion) (cynomolgus monkeys): substantial increase

C[C@H]1C[C@@H](Oc2ccnc(COc3ccc(C4CC4)cc3C#N)n2)CCN1Cc1nc2c(F)cc(C(=O)O)cc2n1C[C@@H]1CCO1 [Compound 509, 2-(((2S,4S)-4-((2-((2-cyano-4-cyclopropylphenoxy)methyl)pyrimidin-4-yl)oxy)-2-methylpiperidin-1-yl)methyl)-4-fluoro-1-(((S)-oxetan-2-yl)methyl)-1H-benzo[d]imidazole-6-carboxylic acid]
EC50 (human GLP-1 receptor): < 50 nM

C[C@H]1C[C@@H](Oc2ccnc(COc3ccc(F)cc3F)n2)CCN1Cc1nc2ccc(C(=O)O)cc2n1C[C@@H]1CCO1 [Compound 485, 2-{[(2S,4S)-4-({2-[(2,4-difluorophenoxy)methyl]pyrimidin-4-yl}oxy)-2-methylpiperidin-1-yl]methyl}-1-{[(2S)-oxetan-2-yl]methyl}-1H-1,3-benzodiazole-6-carboxylic acid]
EC50 (human GLP-1 receptor): < 50 nM

O=C(O)c1ccc2nc(CN3CCC(Oc4cccc(COc5ccc(Cl)cc5F)n4)CC3)n(Cc3ccno3)c2c1 [Compound 270, 2-{[4-({6-[(4-chloro-2-fluorophenoxy)methyl]pyridin-2-yl}oxy)piperidin-1-yl]methyl}-1-[(1,2-oxazol-5-yl)methyl]-1H-1,3-benzodiazole-6-carboxylic acid]
EC50 (human GLP-1 receptor): < 50 nM

N#Cc1ccc(OCc2nccc(O[C@@H]3C[C@@H]4C[C@H]3CN4Cc3nc4ccc(C(=O)O)cc4n3C[C@@H]3CCO3)n2)c(F)c1 [Compound 506, 2-{[(1S,4S,5R)-5-({2-[(4-cyano-2-fluorophenoxy)methyl]pyrimidin-4-yl}oxy)-2-azabicyclo[2.2.1]heptan-2-yl]methyl}-1-{[(2S)-oxetan-2-yl]methyl}-1H-1,3-benzodiazole-6-carboxylic acid]
EC50 (human GLP-1 receptor): < 50 nM

CN(c1cc(C(=O)N2CCN(Cc3nc4ccc(C(=O)O)cc4n3C[C@@H]3CCO3)CC2)ncn1)C1CCCCC1 [Example 61, (S)-2-((4-(6-(Cyclohexyl(methyl)amino)pyrimidine-4-carbonyl)piperazin-1-yl)methyl)-1-(oxetan-2-ylmethyl)-1H-benzo[d]imidazole-6-carboxylic acid]
EC50 (human GLP-1 receptor): > 500 nM

CCn1cncc1Cn1c(CN2CC[C@H](Oc3ccnc(COc4ccc(Cl)cc4Cl)c3)C[C@@H]2C)nc2ccc(C(=O)O)cc21 [Example 274, 2-(((2S,4S)-4-((2-((2,4-Dichlorophenoxy)methyl)pyridin-4-yl)oxy)-2-methylpiperidin-1-yl)methyl)-1-((1-ethyl-1H-imidazol-5-yl)methyl)-1H-benzo[d]imidazole-6-carboxylic acid]
EC50 (human GLP-1 receptor): < 50 nM

N#Cc1cc(F)c(F)cc1OCc1nccc(OC2CCN(Cc3nc4c(F)cc(C(=O)O)cc4n3C[C@@H]3CCO3)CC2)n1 [Compound 505, 2-{[4-({2-[(2-cyano-4,5-difluorophenoxy)methyl]pyrimidin-4-yl}oxy)piperidin-1-yl]methyl}-4-fluoro-1-{[(2S)-oxetan-2-yl]methyl}-1H-1,3-benzodiazole-6-carboxylic acid]
EC50 (human GLP-1 receptor): < 50 nM

Cn1cncc1Cn1c(CN2CCC(Oc3cccc(COc4ccc(Cl)cc4Cl)c3)CC2)nc2ccc(C(=O)O)cc21 [Compound 255, 2-[(4-{3-[(2,4-dichlorophenoxy)methyl]phenoxy}piperidin-1-yl)methyl]-1-[(1-methyl-1H-imidazol-5-yl)methyl]-1H-1,3-benzodiazole-6-carboxylic acid]
EC50 (human GLP-1 receptor): < 50 nM

COC1(Cn2c(CN3CCC(Oc4ccnc(COc5ccc(Cl)cc5F)c4)CC3)nc3ccc(C(=O)O)cc32)CC1 [Example 368, 2-((4-((2-((4-Chloro-2-fluorophenoxy)methyl)pyridin-4-yl)oxy)piperidin-1-yl)methyl)-1-((1-methoxycyclopropyl)methyl)-1H-benzo[d]imidazole-6-carboxylic acid]
EC50 (human GLP-1 receptor): < 50 nM

C[C@H]1C[C@H](Oc2ccnc(COc3ccc(Cl)cc3Cl)c2)CCN1Cc1nc2ccc(C(=O)O)cc2n1C[C@@H]1CCO1 [Compound 295, 2-{[(2S,4R)-4-({2-[(2,4-dichlorophenoxy)methyl]pyridin-4-yl}oxy)-2-methylpiperidin-1-yl]methyl}-1-{[(2S)-oxetan-2-yl]methyl}-1H-1,3-benzodiazole-6-carboxylic acid]
EC50 (human GLP-1 receptor): < 50 nM

Cc1ccc(S(=O)(=O)Nc2cccc(C(=O)N3CCN(Cc4nc5ccc(C(=O)O)cc5n4C[C@@H]4CCO4)CC3)c2)cc1 [Compound 70, 2-({4-[3-(4-methylbenzenesulfonamido)benzoyl]piperazin-1-yl}methyl)-1-{[(2S)-oxetan-2-yl]methyl}-1H-1,3-benzodiazole-6-carboxylic acid]
EC50 (human GLP-1 receptor): > 500 nM

CCn1cncc1Cn1c(CN2CCC(CO)(Cc3ccnc(COc4ccc(Cl)cc4Cl)c3)CC2)nc2ccc(C(=O)O)cc21 [Example 150, 2-((4-((2-((2,4-Dichlorophenoxy)methyl)pyridin-4-yl)methyl)-4-(hydroxymethyl)piperidin-1-yl)methyl)-1-((1-ethyl-1H-imidazol-5-yl)methyl)-1H-benzo[d]imidazole-6-carboxylic acid]
EC50 (human GLP-1 receptor): < 50 nM
